Laboratory results as given in patent publication US10329542B2, “HBV RNAse H purification and enzyme inhibitors” (Saint Louis University, priority 2012, dated 2019).

What was measured:
[1] = target: T1, HBV genotype D RNAseH (HRHPL) (Hepatitis B virus genotype D subtype ayw, UniProt P03156, INS679M); experiment: Oligonucleotide-directed RNAseH cleavage assay, HBV genotype D; assay type: biochemical; conditions: for Residual activity at 10 uM, Genotype D: ± standard deviation, 3 to 7 replicates; for Activity vs. HBV Biochemical vs. gtD: class by concentration giving inhibition (10, 20, 60 μM)
T1 construct: HRHPL contains HBV genotype D (Genbank V01460) polymerase residues 684-845; made in house; host or cells: E. coli BL21 codon+
T1 sequence (P03156 680-832, added parts left off, stated change not applied): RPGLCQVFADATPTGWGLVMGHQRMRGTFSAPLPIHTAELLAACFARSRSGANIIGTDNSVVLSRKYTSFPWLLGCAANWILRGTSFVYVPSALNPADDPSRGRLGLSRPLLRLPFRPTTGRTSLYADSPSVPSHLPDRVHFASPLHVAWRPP

HBV = HBV genomic replication assays (Table 2); assay type: cell-based, Hepatitis B virus; conditions: class by active concentration
Outline: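 Huh7 cells transfected with HBV plasmid received compound at 10 or 50 μM, refreshed every 1-2 days. Core-particle DNA isolated 4-5 days post-transfection was analysed by Southern blot, with or without RNaseH. For the screen, replicating cells got 60, 20 or 6.7 μM, refreshed days 1-2, and plus-strand DNA was quantified on day 3 by cross-gap TaqMan PCR.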

[2] = target: T2, chimeric HBV:HIV RNAseH HHC1 (Hepatitis B virus genotype D subtype ayw, UniProt P03156, DELINS787-795[…]/INS679M); experiment: Oligonucleotide-directed RNAseH cleavage assay, chimeric HHC1; assay type: biochemical; conditions: 10 μM; ± standard deviation, 3 to 7 replicates
T2 construct: HHC1 is an HRHPL derivative; made in house; host or cells: E. coli BL21 codon+
T2 sequence (P03156 680-786, added parts left off, stated change not applied): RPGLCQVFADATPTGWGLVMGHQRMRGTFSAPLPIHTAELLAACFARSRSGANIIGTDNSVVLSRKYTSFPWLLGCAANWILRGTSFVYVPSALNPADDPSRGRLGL
From the text: pCMV-HBV-LE-(CMV-HBV) is an HBV over-length genomic expression vector containing 1.2 copies of the HBV(adw2) genome (Genbank X02763.1) downstream of the CMV promoter cloned into pBS (Promega). Surface protein expression from this vector is ablated by mutating the preS and S open reading frames. pCMV-HBV(genotype D) is an analogous HBV genomic expression construct and was a gift from Dr. Shuping Tong (Brown University). For bacterial expression, codon-optimized cDNA sequences for HRHPL (genotypes A, B, C, D, and H), and noncodon-optimized sequences for HHC1 and HHC2 were cloned by gene synthesis (Genscript) between the NcoI and EcoRI sites into pTrcHis2B (Invitrogen) with a C-terminal hexahistidine tag. HRHPL contains HBV genotype D (Genbank V01460) polymerase residues 684-845. HHC1 is an HRHPL derivative in which HBV polymerase residues 800-808 were replaced with HIV residues corresponding to the RNAseH helix D ([…]; SEQ ID NO:6). HHC2 is an HRHPL derivative in which HBV polymerase residues 800-845 were replaced with HIV residues corresponding to the RNAseH helix D to the C-terminus ([…]; SEQ ID NO:7). The human RNAseH1 gene (NP_002927.2) was cloned with an N-terminal hexahistidine-tag between the BamHI and XhoI sites of pRsetB (Invitrogen) by gene synthesis.
(§1) For the oligonucleotide-directed RNAseH cleavage assay (Gong et al., 2001), 6 μl protein extract (typical protein concentration 2.8 mg/ml) was mixed with 0.5 μg internally ^32P-labeled DRF+ RNA (nucleotides 2401-2605 of the duck HBV genome plus 60 nucleotides of flanking sequences from pBluescript) and 3 μg oligonucleotide D2507- or its corresponding negative control D2526+ on ice in 20 μl under the conditions in Table 1. Some reactions in FIG. 5 employed oligonucleotide D2543M-Sal or its D2453+ negative control as indicated. The reactions were incubated at 42° C. for 90 min. and terminated by addition of Laemmli protein loading buffer and boiling. The samples were resolved by 12% SDS-PAGE, the gels were stained with Coomassie blue to monitor protein loading, and labeled RNA was detected by autoradiography. Candidate inhibitors were dissolved in DMSO and added at the indicated concentrations during assembly of the reactions. Control reactions lacking the compounds contained DMSO as a vehicle control. The RNAseH autoradiograms were scanned and quantified with ImageJ. The oligonucleotides were: D2526+([…]; SEQ ID NO:8), D2507-([…]; SEQ ID NO:9), D2453+([…]; SEQ ID NO:10), and D2543M-Sal ([…]; SEQ ID NO:11).

[3] = target: HCV RNA-directed RNA polymerase (Hepatitis C virus genotype 1a, UniProt P27958); experiment: Primed homopolymeric RNA (poly-G) synthesis assay; assay type: biochemical; conditions: 10 μM
HCV RNA-directed RNA polymerase, sequence (P27958 2421-3011): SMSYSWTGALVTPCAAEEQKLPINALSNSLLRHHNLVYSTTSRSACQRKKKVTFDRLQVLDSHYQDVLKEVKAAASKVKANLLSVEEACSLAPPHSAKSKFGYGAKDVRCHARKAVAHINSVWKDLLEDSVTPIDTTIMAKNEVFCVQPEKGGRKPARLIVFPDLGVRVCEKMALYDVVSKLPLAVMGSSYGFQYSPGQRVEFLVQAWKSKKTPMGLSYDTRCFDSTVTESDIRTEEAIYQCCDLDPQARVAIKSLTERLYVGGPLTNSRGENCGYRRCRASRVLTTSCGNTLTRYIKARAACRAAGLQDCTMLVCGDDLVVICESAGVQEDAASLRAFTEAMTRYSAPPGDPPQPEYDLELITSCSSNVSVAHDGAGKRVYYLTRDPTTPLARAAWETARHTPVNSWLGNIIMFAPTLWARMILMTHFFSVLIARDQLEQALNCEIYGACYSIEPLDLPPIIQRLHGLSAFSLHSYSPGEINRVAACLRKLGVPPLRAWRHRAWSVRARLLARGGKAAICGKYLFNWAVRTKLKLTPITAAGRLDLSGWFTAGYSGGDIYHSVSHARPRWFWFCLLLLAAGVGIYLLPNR
Experimental: FIGS. 9A-C. Specificity of anti-HBV RNAseH compounds. (FIG. 9A) Inhibition of HBV genotype D RNAseH by irrelevant compounds at 10 μM in the oligonucleotide-directed RNAseH assay. Compound #4 was employed as an example HBV RNAseH inhibitor. […] The ability of compounds #5, 6 and 8 to inhibit production of poly-G by the HCV RNA-directed RNA polymerase was measured in a primed homopolymeric RNA synthesis assay (Cao, et al., 2011. The compounds were employed at 10 μM. DMSO, vehicle control. (FIG. 9C) Dose-responsiveness of HBV RNAseH inhibition. The effects of compounds #6, 8, and 12 on the RNAseH activity of HRHPL (genotype D) were measured at concentrations ranging from 0.5 to 50 μM. The dose-response profile is plotted for compound #12.

HBV genotype H RNAseH = experiment: Oligonucleotide-directed RNAseH cleavage assay, HBV genotype H; assay type: biochemical, Hepatitis B virus; conditions: 10 μM; ± standard deviation, 3 to 7 replicates
Experimental: as §1
Oligonucleotide-directed RNAseH cleavage assays (Gong et al., 2001) were performed as described (Tavis et al., 2013). Briefly, HBV RNAseH extracts were mixed with a 264 nt-long internally ^32P-labeled RNA plus an excess of a complementary DNA oligonucleotide or its inverse-complement as a negative control in a final concentration of 65 mM Tris pH 8.0, 190 mM NaCl, 5 mM MgCl2, 5 mM dTT, 0.05% NP40, and 6% glycerol. βTJ was dissolved in DMSO and added at the indicated concentrations; the final concentration of DMSO in all reactions was 1%. The reactions were incubated at 42° C. for 90 min. and terminated by addition of Laemmli protein electrophoresis buffer. The samples were resolved by SDS-PAGE, labeled RNA was detected by autoradiography, the autoradiograms were scanned, and the RNA cleavage products were quantified with ImageJ (National Institutes of Health). IC50 values were calculated by non-linear regression using GraphPad Prism (GraphPad Software, Inc.).

[4] = mice and rats, doses 10 to 58 times those used in humans; cited from earlier work

Structure (SMILES) | Residual activity at 10 uM, Genotype D [1] [Percent DMSO control] | Activity vs. HBV Biochemical vs. gtD [1] | Activity vs. HBV Genomic Replication (HBV) | Residual activity at 10 uM, HHC1 [2] [Percent DMSO control] | Inhibition of poly-G production by HCV RNA polymerase [3] | Residual activity at 10 uM, Genotype H (HBV genotype H RNAseH) [Percent DMSO control] | Inhibition ([1]; at 50 μM) [%] | Inhibition plateau ([1]; between 3 and 40 μM) | Carcinogenicity or mutagenicity [4]
Cc1cc(C)c(C#N)c(=N)o1 [Compound 5] | 42 ± 15 | + (+ inhibition at 60 μM) | − (− no activity at 60 μM) | 36 ± 6 | do not significantly inhibit | 76 ± 14 |  |  | 
CCOC(=O)c1sc(NC(=O)CSc2nnc(Cc3ccccc3)o2)c(C#N)c1C [Compound 6] | 40 ± 16 | + (+ inhibition at 60 μM) | − (− no activity at 60 μM) | 55 ± 23 | do not significantly inhibit | 81 ± 24 | 75 | 20-30% | 
Nc1ccn([C@H]2CS[C@@H](CO)O2)c(=O)n1 [Lamivudine, 2′,3′-dideoxy-3′-thiacytidine] |  |  |  |  |  |  |  |  | no evidence of carcinogenicity or mutagenicity
